This is an account of results in paper PMC8131363 (Scientific Reports, 2021).

Starred links: 1 amine or outer side, 2 acyl side, 3 side chain; linkers in the order of their positions; H or OH if unused. Non-standard residues stand in square brackets, D forms with d. No end group written: not given here. γGlu = O=C(O)[C@H](CCC(=O)[*:2])N[*:1]; Abu = CC[C@H](N)C(=O)O

Experiment [1] addresses domestic cat Calcium Sensing Receptor (cCaSR) (Felis catus).
The target of experiment [2] is T1, cCaSR (Felis catus, UniProt C7FF08).
T1 sequence (C7FF08 1-1081): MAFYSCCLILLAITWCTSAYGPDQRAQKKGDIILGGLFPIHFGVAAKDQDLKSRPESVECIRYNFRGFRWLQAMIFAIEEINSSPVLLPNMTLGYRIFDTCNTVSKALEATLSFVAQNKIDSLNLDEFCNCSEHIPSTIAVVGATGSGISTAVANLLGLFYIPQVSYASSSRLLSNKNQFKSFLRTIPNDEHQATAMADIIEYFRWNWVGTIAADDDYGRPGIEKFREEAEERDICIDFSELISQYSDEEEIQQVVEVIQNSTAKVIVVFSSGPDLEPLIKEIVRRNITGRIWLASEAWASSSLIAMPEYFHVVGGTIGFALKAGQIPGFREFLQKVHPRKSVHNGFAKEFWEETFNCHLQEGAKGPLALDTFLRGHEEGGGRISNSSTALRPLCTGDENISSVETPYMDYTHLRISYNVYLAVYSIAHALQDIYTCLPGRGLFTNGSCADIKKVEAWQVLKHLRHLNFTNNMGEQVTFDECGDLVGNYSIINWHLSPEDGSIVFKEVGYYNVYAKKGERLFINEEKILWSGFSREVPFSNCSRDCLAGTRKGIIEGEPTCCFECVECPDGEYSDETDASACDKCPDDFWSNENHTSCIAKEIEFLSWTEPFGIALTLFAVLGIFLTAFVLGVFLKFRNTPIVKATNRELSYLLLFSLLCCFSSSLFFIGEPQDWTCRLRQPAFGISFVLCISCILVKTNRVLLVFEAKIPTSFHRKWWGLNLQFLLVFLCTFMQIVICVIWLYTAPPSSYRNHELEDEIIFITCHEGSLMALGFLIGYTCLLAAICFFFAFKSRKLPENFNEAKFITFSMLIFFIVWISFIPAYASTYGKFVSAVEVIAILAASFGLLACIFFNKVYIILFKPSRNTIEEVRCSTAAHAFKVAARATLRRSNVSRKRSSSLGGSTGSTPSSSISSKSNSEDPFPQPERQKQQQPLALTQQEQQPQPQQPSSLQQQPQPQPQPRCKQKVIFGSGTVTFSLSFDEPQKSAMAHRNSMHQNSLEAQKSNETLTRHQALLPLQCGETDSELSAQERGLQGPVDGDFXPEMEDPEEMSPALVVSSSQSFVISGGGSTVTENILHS
Put plainly: cCaSR transiently expressed in HEK293/natClytin, agonist luminescence assay. It is filed as cell-based. The settings on record: transiently expressed cCaSR; > 3 mM = maximal response not reached; read-out: cCaSR EC50. On the procedure:
(§1) The coding sequence of the Felis catus[52] and Homo sapiens[53] CaSR gene was synthesised by GeneArt (Thermo Fisher Scientific). The cat coding sequence was excised from the GeneArt construct and inserted in pcDNA3.1 for constitutive and transient expression or pcDNA5/ TO for inducible expression. For the human sequence the pcDNA6 vector as delivered by GeneArt was used without further sub-cloning.
(§2) All transient transfections were performed with Lipofectamine 2000 (Invitrogen) according to the manufacturer’s protocol.

The target of experiment [3] is T2, hCaSR (Homo sapiens, UniProt P41180).
T2 construct: expressed in transfected cells; host or cells: HEK293/natClytin (transient, pcDNA6 as delivered by GeneArt)
T2 sequence (P41180 20-1078): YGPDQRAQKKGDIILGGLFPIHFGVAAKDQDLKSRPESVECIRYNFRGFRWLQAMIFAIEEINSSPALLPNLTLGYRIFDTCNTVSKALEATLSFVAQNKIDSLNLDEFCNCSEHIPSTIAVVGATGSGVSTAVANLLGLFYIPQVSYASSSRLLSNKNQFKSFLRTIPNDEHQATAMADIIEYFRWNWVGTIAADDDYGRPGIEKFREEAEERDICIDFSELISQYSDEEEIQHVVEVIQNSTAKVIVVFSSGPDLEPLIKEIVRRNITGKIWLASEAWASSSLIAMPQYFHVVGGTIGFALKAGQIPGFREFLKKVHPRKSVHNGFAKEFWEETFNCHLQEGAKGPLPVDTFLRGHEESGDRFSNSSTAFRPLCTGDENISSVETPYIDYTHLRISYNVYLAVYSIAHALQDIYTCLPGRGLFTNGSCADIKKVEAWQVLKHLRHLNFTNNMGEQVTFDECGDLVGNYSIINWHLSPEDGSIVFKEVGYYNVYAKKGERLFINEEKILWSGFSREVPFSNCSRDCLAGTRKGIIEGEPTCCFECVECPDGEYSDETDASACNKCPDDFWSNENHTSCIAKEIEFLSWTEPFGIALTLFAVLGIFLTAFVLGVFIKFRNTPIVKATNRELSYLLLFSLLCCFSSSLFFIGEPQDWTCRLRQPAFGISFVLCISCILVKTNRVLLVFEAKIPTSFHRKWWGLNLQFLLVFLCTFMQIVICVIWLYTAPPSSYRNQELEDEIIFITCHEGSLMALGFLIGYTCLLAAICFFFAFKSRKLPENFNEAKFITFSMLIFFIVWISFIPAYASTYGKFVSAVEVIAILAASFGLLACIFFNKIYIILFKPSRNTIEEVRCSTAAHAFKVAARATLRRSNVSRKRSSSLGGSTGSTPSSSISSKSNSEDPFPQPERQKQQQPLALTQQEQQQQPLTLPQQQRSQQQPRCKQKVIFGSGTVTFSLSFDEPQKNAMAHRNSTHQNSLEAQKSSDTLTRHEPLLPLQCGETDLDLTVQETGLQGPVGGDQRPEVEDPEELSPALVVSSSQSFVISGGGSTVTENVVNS
Put plainly: hCaSR transiently expressed in HEK293/natClytin, agonist luminescence assay. It is filed as cell-based. The following applies: transiently expressed hCaSR; > 3 mM = maximal response not reached; read-out: hCaSR EC50. The method, then: as §1, §2

In experiment [4] the target is T1, cCaSR. Put plainly: cell-based.
Procedure: (§3) The cCaSR expression constructs were stably-transfected in the mammalian cell line, HEK293/ T-REx/ natClytin. Transfections were performed by electroporation, following standard methodologies. Stably-transfected target and mock pools were obtained after 2–3 weeks of antibiotic selection, and clones were selected for testing. In order to evaluate the activity of each clone, 10 mM Calcium was injected onto the cells and the resulting luminescence was measured.
(§4) All compounds screened on the receptor were analysed in parallel with Calcium, on the HEK293/ T-REx/ natClytin-cCaSR or hCaSR stable or transient cell lines. Prior to the measurements, the cells were incubated with 10 µM of photoprotein substrate, Coelenterazine, prepared in Calcium-free Tyrode’s buffer at 37 °C for 3–4 h. All the data was captured using a FLIPR Tetra (Molecular Devices). A single or double injection protocol was used to capture the data for potential agonists and PAMs, respectively. The compounds tested were all prepared at desired concentration in Calcium-Free Tyrode’s buffer supplemented with 0.5% DMSO. For the activity determination of potential agonists, the single injection protocol was used, with CaCl2 as the positive control for each run. Each compound was injected into specific wells and the luminescence signal was measured for 1 min. for each compound. For potential PAMs, the double injection protocol was used. The first injection was identical to the one described above for potential agonists. A 20 min. resting period followed the first injection and a second injection of 0.5 mM CaCl2 in Calcium-free Tyrode’s buffer was injected to all wells, and the resulting luminescence signal was again measured for 1 min for each compound.
(§5) Dose–response curves were established by plotting signal amplitudes versus agonist concentration. For each compound, the % of maximum response was determined using a standard formula as follows:
(§6) The half maximal effective concentrations (EC50) were identified by nonlinear regression using a variable slope model with the equation Y = Bottom + (X^Hillslope)*(Top–Bottom)/ (X^HillSlope + EC50^HillSlope), where Y is the agonist concentration, Top and Bottom are the plateaus in the same units as Y and HillSlope is the Slope factor or Hill slope. […] In these cases the EC50 was noted as being higher than the maximum concentration used in the assay.
Experiment [5] addresses T1, cCaSR. The experiment in a line: cCaSR PAM luminescence assay, double injection with 0.5 mM CaCl2, HEK293/T-REx/natClytin-cCaSR. The settings on record: Supplementary Table I, PAM assay, dash = no activity.
Procedure: as §3, §4
The half maximal effective concentrations (EC50) were identified by nonlinear regression using a variable slope model with the equation Y = Bottom + (X^Hillslope)*(Top–Bottom)/ (X^HillSlope + EC50^HillSlope), where Y is the agonist concentration, Top and Bottom are the plateaus in the same units as Y and HillSlope is the Slope factor or Hill slope. All calculations and plots were done using GraphPad Prism 8. […] In these cases the EC50 was noted as being higher than the maximum concentration used in the assay.
Experiment [6] has as its target T1, cCaSR.
Procedure: as §3, §4, §5, §6
Where [7] appears, read: cCaSR stable EC50(mM), stably expressed cCaSR, Fig. 6b, > 3 mM = maximal response not reached.
[8] abbreviates: cCaSR activity, agonist assay, stable inducible cCaSR line, at least three wells.

[γGlu]-Trp: the EC50 of agonist activity, luminescence (natClytin) in HEK T-Rex/natClytin cells inducibly expressing cCaSR, calcium-free buffer; activity grade + in experiment [1] is greater than 10 mM. Still for that read-out and setting: in the case of [γGlu]-Gly it was greater than 10 mM; in that of S-Lactoylglutathione (peptide), greater than 10 mM.

As for `NCCCCN` [Putrescine], the EC50 in experiment [2], in experiment [3] and in experiment [4] (setting [7]) was greater than 3 mM in each case.

Regarding 3-Glutathionyl-S-methylindole (peptide), in experiment [1], the EC50 of agonist activity, luminescence (natClytin) in HEK T-Rex/natClytin cells inducibly expressing cCaSR, calcium-free buffer; activity grade ++ came to 3.74 mM. For the compound `CC[C@H](NC(=O)CC[C@H](N)C(=O)O)C(=O)NCC(=O)O` [γ-Glu-Abu-Gly], in experiment [5], the “EC50 PAM (M)” value was “-”. For the same compound, the EC50 – broadly, the concentration needed to bring the measured effect to its halfway point – in experiment [2] was greater than 3 mM; in experiment [3], greater than 3 mM; in experiment [4] (EC50 (M), agonist assay, stable inducible cCaSR line, > 0.01 M = maximal response not reached), 2.65 mM; in experiment [4] (setting [8]), 1 to 10 mM; in experiment [4] (setting [7]), greater than 3 mM. As to [γGlu]-Glu-Gln, in experiment [1], the EC50 of agonist activity, luminescence (natClytin) in HEK T-Rex/natClytin cells inducibly expressing cCaSR, calcium-free buffer; activity grade + is greater than 10 mM. [γGlu]-Glu-Glu: in experiment [1], the EC50 of agonist activity, luminescence (natClytin) in HEK T-Rex/natClytin cells inducibly expressing cCaSR, calcium-free buffer; activity grade ++ was found to be 2.35 mM. In the case of [γGlu]-Gln, in experiment [1], the EC50 of agonist activity, luminescence (natClytin) in HEK T-Rex/natClytin cells inducibly expressing cCaSR, calcium-free buffer; activity grade + is greater than 10 mM. Same read-out and setting: in the case of [γGlu]-Leu it was greater than 10 mM. Consider [γGlu]-[Abu]-Gly, for which the EC50 of agonist activity, luminescence (natClytin) in HEK T-Rex/natClytin cells inducibly expressing cCaSR, calcium-free buffer; activity grade ++ in experiment [1] came to 2.65 mM. For `NC(CCCCC(=O)O)C(=O)O` (centres unmarked) [2-Aminopimelic acid], in experiment [5], the “EC50 PAM (M)” value was “-”. The same compound displayed an EC50 in experiment [4] (setting [8]) greater than 10 mM. Besides, in experiment [6] (Supplementary Table I, agonist assay, dash = no activity), the “EC50 Ago (M)” value was “-”. On to Poly-L-lysine (peptide), for which the EC50 of agonist activity, luminescence (natClytin) in HEK T-Rex/natClytin cells inducibly expressing cCaSR, calcium-free buffer; activity grade + in experiment [1] was greater than 10 mM. As for `NC(=O)[C@@H](N)CCC(=O)O` [L-Isoglutamine], the “EC50 PAM (M)” value in experiment [5] is “-”. Besides, in experiment [4] (setting [8]), the EC50 was greater than 10 mM. Moreover, the “agonist activity on cCaSR (in words)” value in experiment [6] was “agonist activity”. For γ-Glu-Phe (peptide), the EC50 of agonist activity, luminescence (natClytin) in HEK T-Rex/natClytin cells inducibly expressing cCaSR, calcium-free buffer; activity grade ++ in experiment [1] was found to be 2.32 mM.

For γ-Glu-Abu (peptide), in experiment [1], the EC50 of agonist activity, luminescence (natClytin) in HEK T-Rex/natClytin cells inducibly expressing cCaSR, calcium-free buffer; activity grade + was greater than 10 mM. On to S-Methylglutathione (peptide), for which the EC50 of agonist activity, luminescence (natClytin) in HEK T-Rex/natClytin cells inducibly expressing cCaSR, calcium-free buffer; activity grade ++ in experiment [1] was 4.42 mM.

[γGlu]-Val-Gly: the EC50 of agonist activity, luminescence (natClytin) in HEK T-Rex/natClytin cells inducibly expressing cCaSR, calcium-free buffer; activity grade ++ in experiment [1] came out at 4.22 mM.
